Experimental data from ChEMBL document CHEMBL2046359, “Novel tricyclic indeno[2,1-d]pyrimidines with dual antiangiogenic and cytotoxic activities as potent antitumor agents” (Bioorg Med Chem, 2012).

What was measured:
A-431 = experiment: Antiproliferative activity against human A431 cells after 48 hrs by CYQUANT assay; assay type: functional, cell-based; conditions: A-431, 48 h
[1] = Antiangiogenic activity in VEGF/bFGF-stimulated chicken embryo after 48 hrs by CAM assay; assay type: functional, Gallus gallus
[2] = target: Platelet-derived growth factor receptor beta (Homo sapiens, UniProt P09619); experiment: Inhibition of PDGFRbeta in human SF539 cells pretreated for 60 mins measured after 10 mins by ELISA
[3] = target: Vascular endothelial growth factor receptor 2 (Homo sapiens, UniProt P35968); assay type: cell-based, U-251
[4] = target: T1, Dihydroorotate dehydrogenase (Plasmodium falciparum, UniProt Q54A96); experiment: Inhibition of Plasmodium falciparum DHODH
T1 sequence (Q54A96 whole entry): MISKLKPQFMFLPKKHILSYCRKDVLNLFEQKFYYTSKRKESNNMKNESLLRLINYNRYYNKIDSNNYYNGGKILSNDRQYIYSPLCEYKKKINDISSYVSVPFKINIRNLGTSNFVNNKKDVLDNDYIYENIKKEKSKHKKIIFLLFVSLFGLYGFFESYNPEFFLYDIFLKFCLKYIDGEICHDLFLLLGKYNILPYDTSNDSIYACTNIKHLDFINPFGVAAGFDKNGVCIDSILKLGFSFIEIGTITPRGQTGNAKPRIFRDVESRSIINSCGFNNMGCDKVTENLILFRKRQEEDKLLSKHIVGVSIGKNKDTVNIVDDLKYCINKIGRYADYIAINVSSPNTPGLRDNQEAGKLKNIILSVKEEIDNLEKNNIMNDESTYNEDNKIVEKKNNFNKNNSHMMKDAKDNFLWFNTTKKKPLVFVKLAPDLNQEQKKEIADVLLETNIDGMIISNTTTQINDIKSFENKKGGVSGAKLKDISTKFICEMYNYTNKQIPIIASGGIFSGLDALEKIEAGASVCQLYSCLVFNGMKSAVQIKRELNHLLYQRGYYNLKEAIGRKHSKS

[5] = target: T2, Bifunctional dihydrofolate reductase-thymidylate synthase (Toxoplasma gondii, UniProt Q07422); experiment: Inhibition of Toxoplasma gondii DHFR
T2 sequence (Q07422 whole entry): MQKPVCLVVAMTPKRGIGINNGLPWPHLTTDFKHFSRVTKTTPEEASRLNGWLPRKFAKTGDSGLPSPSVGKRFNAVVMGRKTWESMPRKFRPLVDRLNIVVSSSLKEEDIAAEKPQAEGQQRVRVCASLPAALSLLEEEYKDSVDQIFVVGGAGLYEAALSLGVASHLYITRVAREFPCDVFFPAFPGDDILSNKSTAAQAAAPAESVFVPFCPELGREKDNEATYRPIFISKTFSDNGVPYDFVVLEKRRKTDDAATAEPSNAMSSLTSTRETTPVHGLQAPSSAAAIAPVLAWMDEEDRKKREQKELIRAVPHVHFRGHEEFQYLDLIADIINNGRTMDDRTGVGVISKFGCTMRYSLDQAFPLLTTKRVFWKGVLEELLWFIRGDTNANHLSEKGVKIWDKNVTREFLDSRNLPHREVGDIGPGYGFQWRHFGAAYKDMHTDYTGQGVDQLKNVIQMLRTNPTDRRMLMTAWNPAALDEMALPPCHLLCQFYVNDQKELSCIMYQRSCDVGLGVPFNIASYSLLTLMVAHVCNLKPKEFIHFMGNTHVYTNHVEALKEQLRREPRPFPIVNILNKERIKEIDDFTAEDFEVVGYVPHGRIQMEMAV

[6] = Inhibition of Escherichia coli thymidylate synthase
Dihydrofolate reductase = target: T3, Dihydrofolate reductase (Homo sapiens, UniProt P00374)
T3 sequence (P00374 whole entry): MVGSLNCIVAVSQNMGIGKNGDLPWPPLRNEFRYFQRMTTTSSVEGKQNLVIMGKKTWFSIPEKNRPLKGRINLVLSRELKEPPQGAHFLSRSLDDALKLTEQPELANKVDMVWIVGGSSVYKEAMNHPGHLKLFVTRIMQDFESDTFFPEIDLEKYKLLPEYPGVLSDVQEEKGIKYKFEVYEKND

Thymidylate synthase = Thymidylate synthase (Homo sapiens, UniProt P04818); experiment: Inhibition of human thymidylate synthase
[7] = target: Dihydroorotate dehydrogenase (quinone), mitochondrial (Homo sapiens, UniProt Q02127); experiment: Inhibition of human DHODH
[8] = target: T2, Bifunctional dihydrofolate reductase-thymidylate synthase; experiment: Inhibition of Toxoplasma gondii thymidylate synthase

Thymidylate synthase, sequence (P04818 whole entry): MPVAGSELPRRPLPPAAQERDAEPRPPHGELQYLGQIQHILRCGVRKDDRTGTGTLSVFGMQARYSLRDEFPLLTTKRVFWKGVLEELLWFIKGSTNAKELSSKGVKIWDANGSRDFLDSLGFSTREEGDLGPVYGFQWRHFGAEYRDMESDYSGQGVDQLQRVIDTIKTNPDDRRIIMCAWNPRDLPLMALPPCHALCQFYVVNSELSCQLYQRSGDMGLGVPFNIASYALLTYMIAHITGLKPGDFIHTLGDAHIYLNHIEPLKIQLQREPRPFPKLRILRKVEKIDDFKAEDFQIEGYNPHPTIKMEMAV
Vascular endothelial growth factor receptor 2, sequence (P35968 whole entry): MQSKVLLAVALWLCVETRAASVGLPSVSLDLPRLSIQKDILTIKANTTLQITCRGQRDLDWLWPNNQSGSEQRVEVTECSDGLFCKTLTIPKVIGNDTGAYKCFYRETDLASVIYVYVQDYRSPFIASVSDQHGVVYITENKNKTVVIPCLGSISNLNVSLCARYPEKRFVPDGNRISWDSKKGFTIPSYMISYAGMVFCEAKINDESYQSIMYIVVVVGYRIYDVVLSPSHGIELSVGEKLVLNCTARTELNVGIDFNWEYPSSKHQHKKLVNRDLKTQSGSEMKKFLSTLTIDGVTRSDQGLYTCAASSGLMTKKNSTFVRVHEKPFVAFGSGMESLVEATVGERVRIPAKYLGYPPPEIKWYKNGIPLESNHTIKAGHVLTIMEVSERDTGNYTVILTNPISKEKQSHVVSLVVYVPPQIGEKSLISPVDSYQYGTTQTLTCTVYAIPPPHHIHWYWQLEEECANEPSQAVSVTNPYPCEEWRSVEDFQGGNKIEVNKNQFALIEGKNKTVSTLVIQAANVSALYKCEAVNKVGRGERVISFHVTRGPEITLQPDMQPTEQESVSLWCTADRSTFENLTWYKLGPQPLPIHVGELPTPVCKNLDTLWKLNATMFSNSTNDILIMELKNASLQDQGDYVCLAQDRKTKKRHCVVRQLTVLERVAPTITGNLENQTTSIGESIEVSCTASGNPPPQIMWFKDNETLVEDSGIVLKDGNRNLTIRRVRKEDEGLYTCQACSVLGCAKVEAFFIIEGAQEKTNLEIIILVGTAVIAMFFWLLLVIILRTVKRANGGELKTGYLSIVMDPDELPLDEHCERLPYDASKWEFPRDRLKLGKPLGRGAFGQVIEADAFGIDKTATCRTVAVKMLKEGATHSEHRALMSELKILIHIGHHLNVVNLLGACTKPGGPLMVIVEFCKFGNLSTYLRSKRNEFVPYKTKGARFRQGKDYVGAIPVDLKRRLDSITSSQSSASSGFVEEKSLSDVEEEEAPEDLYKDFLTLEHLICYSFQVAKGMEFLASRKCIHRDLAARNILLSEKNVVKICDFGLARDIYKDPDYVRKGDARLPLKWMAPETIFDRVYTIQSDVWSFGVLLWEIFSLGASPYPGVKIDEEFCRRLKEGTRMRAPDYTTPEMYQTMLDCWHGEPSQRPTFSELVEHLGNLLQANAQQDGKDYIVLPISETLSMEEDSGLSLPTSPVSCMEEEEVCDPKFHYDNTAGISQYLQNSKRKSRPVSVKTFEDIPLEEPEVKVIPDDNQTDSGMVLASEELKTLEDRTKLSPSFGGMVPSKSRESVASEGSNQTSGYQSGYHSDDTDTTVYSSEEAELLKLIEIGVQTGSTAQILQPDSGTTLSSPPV
Dihydroorotate dehydrogenase (quinone), mitochondrial, sequence (Q02127 whole entry): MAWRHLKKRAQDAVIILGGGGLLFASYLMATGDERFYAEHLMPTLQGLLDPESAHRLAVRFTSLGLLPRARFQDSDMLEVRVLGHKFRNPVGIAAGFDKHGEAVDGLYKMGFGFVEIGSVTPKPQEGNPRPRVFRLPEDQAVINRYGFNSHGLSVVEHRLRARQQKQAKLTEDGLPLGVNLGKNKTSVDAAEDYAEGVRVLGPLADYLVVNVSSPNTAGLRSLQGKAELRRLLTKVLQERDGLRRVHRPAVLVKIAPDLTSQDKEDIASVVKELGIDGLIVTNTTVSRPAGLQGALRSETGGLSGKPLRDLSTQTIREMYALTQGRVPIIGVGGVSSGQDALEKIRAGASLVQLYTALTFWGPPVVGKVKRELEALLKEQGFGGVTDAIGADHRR
Platelet-derived growth factor receptor beta, sequence (P09619 whole entry): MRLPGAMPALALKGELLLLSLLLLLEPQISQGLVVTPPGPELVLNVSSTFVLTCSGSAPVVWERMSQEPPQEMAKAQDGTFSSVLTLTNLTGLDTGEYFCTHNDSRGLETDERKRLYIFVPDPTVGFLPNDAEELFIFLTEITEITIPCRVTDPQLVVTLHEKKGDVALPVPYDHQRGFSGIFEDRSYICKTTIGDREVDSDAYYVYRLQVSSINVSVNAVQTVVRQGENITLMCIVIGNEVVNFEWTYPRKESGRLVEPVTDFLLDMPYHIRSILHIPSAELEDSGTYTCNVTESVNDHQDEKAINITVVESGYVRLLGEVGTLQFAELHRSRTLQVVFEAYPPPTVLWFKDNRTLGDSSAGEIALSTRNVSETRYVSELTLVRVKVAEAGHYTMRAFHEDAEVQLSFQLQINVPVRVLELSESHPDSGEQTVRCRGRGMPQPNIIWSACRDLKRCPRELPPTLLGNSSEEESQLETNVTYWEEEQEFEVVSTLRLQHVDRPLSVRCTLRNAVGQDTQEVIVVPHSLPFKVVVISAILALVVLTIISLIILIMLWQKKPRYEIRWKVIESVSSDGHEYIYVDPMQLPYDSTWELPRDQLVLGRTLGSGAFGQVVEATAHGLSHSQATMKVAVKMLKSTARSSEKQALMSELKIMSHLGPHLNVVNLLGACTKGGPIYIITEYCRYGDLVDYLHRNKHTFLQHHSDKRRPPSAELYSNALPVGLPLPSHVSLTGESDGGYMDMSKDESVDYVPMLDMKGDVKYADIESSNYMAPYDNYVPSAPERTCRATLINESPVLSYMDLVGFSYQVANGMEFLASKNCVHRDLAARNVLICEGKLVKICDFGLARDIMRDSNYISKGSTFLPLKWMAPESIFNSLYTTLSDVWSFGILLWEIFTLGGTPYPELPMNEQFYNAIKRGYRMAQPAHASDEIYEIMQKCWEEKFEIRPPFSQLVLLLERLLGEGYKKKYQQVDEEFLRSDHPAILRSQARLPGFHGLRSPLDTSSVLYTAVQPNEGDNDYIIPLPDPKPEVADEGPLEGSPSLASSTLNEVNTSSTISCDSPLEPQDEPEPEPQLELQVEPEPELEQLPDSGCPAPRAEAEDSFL

Compound	IC50 (A-431) [µM]	IC50 [1] [µM]	IC50 [2] [µM]	IC50 [3] [µM]	IC50 [4] [µM]	IC50 [5] [µM]	IC50 [6] [µM]	IC50 (Dihydrofolate reductase) [µM]	IC50 (Thymidylate synthase) [µM]	IC50 [7] [µM]	IC50 [8] [µM]
Nc1nc2c(c(Nc3ccc(Br)cc3)n1)-c1ccccc1C2	103	19.1	38.9	30.1	–	–	–	–	–	–	–
Nc1nc2c(c(Nc3ccc(Cl)cc3F)n1)-c1ccccc1C2	9.7	–	–	–	> 200	> 16	> 13	> 16	> 13	> 200	> 13
CC(C)c1ccc(Nc2nc(N)nc3c2-c2ccccc2C3)cc1	126	–	–	–	–	> 16	> 14	> 16	> 14	–	> 14
